Assay results as given in a melting point compilation (Tetko et al.; mined from patent text by program, amines drawn as free bases though some values may be those of a salt).

| melting point [°C] | SMILES |
| --- | --- |
| 181 to 183 | CCC1c2cccn2-c2ccc(C(F)(F)F)cc2N1S(=O)(=O)c1ccc(O)cc1 (stereo not given) |
| 204 | NC(=O)N/N=C(/C(=O)O)c1ccc(OCCOc2ccc3ccccc3c2)cc1 |
| 186 to 188 | CCOCc1nc2c(N)nc3cc(OCc4ccc(C(F)(F)F)o4)ccc3c2n1CC(C)(C)NS(C)(=O)=O |
| 146 to 148 | O=C(C=CCC(Nc1cc(Cl)cc(Cl)c1I)C(=O)OCc1ccccc1)Nc1ccccc1 (stereo not given) |
| 127 to 128 | COc1ccc2c(n1)c(CC[N+](=O)[O-])c1n2Cc2ccccc2-1 |
| 215 to 216 | CCOP(=O)(CCCCCCOc1ccc(C(=O)O)cc1)OCC |
| 159 to 160 | CCCn1c(=O)n([C@@H]2CCN(CCCCN3C(=O)c4cc(Cl)ccc4S3(=O)=O)[C@@H](C#N)C2)c2ccccc21 (relative stereo) |
| 176 to 177 | Nc1ccc(S(=O)(=O)Nn2cc(-c3ccccc3)c3ccccc32)cc1 |
| 87 to 88 | CCOC(=O)c1ccc(NCCCOc2ccc(Cl)cc2)cc1 |
| 43 to 45 | COC(=O)c1cc2c(OC(C)C)cccc2o1 |
| 212 | Nc1ccccc1Oc1ccc2c(c1)C(=O)NC2=O |
| 85 to 90 | COCC1CN(CCOc2ccc(NC(=O)Nc3cc(C(C)(C)C)nn3-c3ccc(C)cc3)c3ccccc23)CCO1 (stereo not given) |
| 262 | Cc1ccc(-c2[nH]c(=O)n(C3CCN(Cc4ccccc4C)CC3)c2C)cc1 |
| 68 to 70 | ClCOc1ccc(-c2ccc(Cl)cc2)cc1 |
| 161 to 163 | CSc1c(CC(C)(C)C(=O)O)n(Cc2ccc(Cl)cc2)c2ccc(F)cc12 |
| 249 to 251 | O=c1c2c(Cc3ccccc3)n[nH]c2c2cccnc2n1-c1cccc(OC(F)(F)F)c1 |
| 122 to 126 | COc1ccc(C(=O)CC(=O)Nc2ccc(C)cc2)cc1 |
| 184 to 185 | CC1=C(C(=O)OC(C)C)C(c2cccc([N+](=O)[O-])c2)n2c(cc(=O)n2Cc2ccccc2)N1 (stereo not given) |
| 152 to 153 | Clc1ccc(C2(Cl)c3ccc(Cl)cc3-c3ncncc32)cc1 (stereo not given) |

| melting point [°C] | SMILES |
| --- | --- |
| 205 | COc1cc(Nc2nccc(-c3ccncc3)n2)cc(OC)c1OC |
| 85 to 95 | Cc1ccc2c(c1)S(=O)(=O)CC(COC(=O)Nc1ccccc1)(COC(=O)Nc1ccccc1)C2=O |
| 55 to 56 | CCN(CC)C(=O)c1cccc(OC)c1-c1ccccc1 |
| 217 to 218 | Cc1cc(-c2nc3cccnn3c2-c2ccnc(NC(=O)C3CC3)c2)ccc1F |
| 213 to 214 | Cc1cccc(-c2nc(CCOc3ccc(C=CC=C4OC(=O)NC4=O)cc3)c(C)o2)c1 |
| 157 to 158 | O=C(O)COc1ccc(CCNS(=O)(=O)c2ccccc2)cc1 |
| 172 to 174 | CCCOc1cc2ccccc2c2c(=O)c(-c3ccc(OC)cc3)c[nH]c12 |
| 198 to 200 | CCOC(=O)COc1ccc(NC(=O)NC(=O)c2ccc(C(=N)N)cc2)cc1 |
| 190 | COc1ccc2ncc3c(c2c1)C(O)CCC3 (stereo not given) |
| 165 to 166 | Cc1ccc(C2CC(N)=NN2c2ccccc2)cc1 (stereo not given) |
| 69 to 70 | CS(=O)(=O)N(Cc1cccnc1)c1ccc(OCC(F)(F)F)cc1 |
| 269 to 270 | Cc1nc2ncc(C(=O)NCc3ccc(Cl)cc3)c(O)c2cc1Br |
| 92 to 95 | COC(=O)CCc1ccc(OCc2nc(-c3ccccc3)c(-c3ccccc3)o2)cc1 |
| 173 | Cn1nc(N)nc1NCCCOc1cccc2c(N3CCCCC3)nccc12 |
| 70 to 80 | COC(=O)C1=C(C)NC(C)=C(C(=O)NCCCN2CCN(c3ccccc3OC)CC2)C1c1cccc([N+](=O)[O-])c1 (stereo not given) |
| 134 to 137 | COC(=O)c1cccc(C=NNc2ccc(C)cc2)c1O |
| 144 to 146 | CSC(=C[N+](=O)[O-])NCCCn1cc(C2=C(c3cn(C)c4ccccc34)C(=O)NC2=O)c2ccccc21 |
| 150 | N#Cc1cccc2nc(N[C@@H]3CCc4ccccc43)ccc12 |
| 103 to 105 | Clc1ccc(-c2ccc(OCCCBr)cc2)cc1 |

Second part, the compound before the results:

| SMILES | melting point [°C] |
| --- | --- |
| C=CC[Si](C)(C)c1cccc(Cl)c1C(=O)NCC | 61 to 63 |
| Cc1cc(=S)c2c(O)cc(O)cc2o1 | 244 to 246 |
| Cc1ccc2c(c1)C(=O)N1CCN=C1N2N1CCOCC1 | 227 to 228 |
| Cc1nn(C)c(S(N)(=O)=O)c1C(=O)OC(C)C | 120 to 122 |
| FC(F)Oc1ccc2nc(NC3=NCC4(CN5CCC4CC5)O3)sc2c1 (stereo not given) | 223 to 225 |
| CC(C)(C)OC(=O)NC(Cc1ccccc1)C(O)CNCC(O)C(Cc1ccccc1)NC(=O)OC(C)(C)CCCNCc1ccccc1 (stereo not given) | 128 to 132 |
| CCn1c(=O)cc(C)c2cc(C(O)(C(F)(F)F)C(F)(F)F)ccc21 | 91 to 92 |
| CCc1c(C(=O)O)sc2[nH]c(=O)c(=O)[nH]c12 | 230 to 232 |
| CCCNC(=S)Nc1sccc1C(=O)OC | 123 to 126 |
| CCS(=O)(=O)c1ccc(F)c(C#Cc2cc(Cl)ccc2OCC(=O)O)c1 | 165 to 169 |
| CNc1nc(-c2ccc3c(c2)CCC3)c(-c2cccnc2)s1 | 169 to 170 |
| CCOC(=O)c1cc2cc(CC#N)ccc2o1 | 76 to 77 |
| CCCCNc1nc(N)nc2c1ncn2C1C=CC(CO)C1 (stereo not given) | 116 to 118 |
| CN1CCN(c2cc([N+](=O)[O-])ccc2Cl)CC1 | 63 to 64 |
| N#Cc1nn(-c2c(Cl)cc(C(F)(F)F)cc2Cl)c(N)c1C=O | 194 to 197 |
| CSc1cnn(-c2c(Cl)cc(C(F)(F)F)cc2Cl)c1N | 106 to 108 |
| Cn1nc2c3c(c(Cl)ccc31)C(=O)c1cnccc1-2 | 244 to 245 |
| O=C1Nc2c(F)cc(F)cc2C1c1ncnc2nn(C3CCCC3)cc12 (stereo not given) | 296 to 297 |
| CCCC1=C(C#N)C(c2cccc(Cl)c2Cl)c2c[nH]nc2N1 (stereo not given) | 242 |

| SMILES | melting point [°C] |
| --- | --- |
| CC(=O)N(C(C)=O)c1cc2c(cc1C)N(C(C)=O)c1ccc(N(C)C)cc1N2C(C)=O | 231 to 234 |
| O=C1CCCCCCCCCCC(O)CCCO1 (stereo not given) | 59 to 61 |
| CCCc1nc(C(O)CCC)c(C)[nH]1 (stereo not given) | 169 to 171 |
| Nc1cccc2nccnc12 | 87 to 90 |
| CCN(CC)CCOC(=C1C2CC3C(C2)C13)c1ccccc1 | 120 to 123 |
| CCC(=N)Nc1ccccc1N1CCOCC1 | 114 |
| CC(C)c1nccn1S(=O)(=O)c1c[nH]cn1 | 118 to 120 |
| COC(=O)c1cc(Cl)c(Cl)c(Cl)c1 | 111 to 112 |
| Nc1nc(N)c2ncn(COCCO)c2n1 | 183 to 184 |
| CC1(C)OCc2cc(C(O)c3c[nH]cn3)ccc2O1 (stereo not given) | 96 |
| N#Cc1[nH]c2ccccc2c1Cl | 150 to 154 |
| CCCCCCCNC(=O)CCCCO | 53 to 54 |
| CSc1ncccc1OCCO | 80 |
| CC(=O)N1C(=O)C(C(=O)c2cccnc2)c2ccccc21 (stereo not given) | 141 to 142 |
| COCCn1nc(C(N)=O)cc1CC(C)(C)C#N | 130 to 131 |
| CCn1cc(C(=O)O)c(=O)c2ccc(C3CCCCC3)cc21 | 222 to 224 |
| CC(Oc1ncn(-c2ccc(Cl)c(Cl)c2)n1)C(=O)O (stereo not given) | 222 to 224 |
| O=C(Nc1nccs1)C(CC1CCCC1)c1ccc(C(F)(F)F)c(F)c1 (stereo not given) | 194 to 195 |
